Reference: patent US12036225B2, “Use of ibezapolstat to promote microbiome health” (Acurx Pharmaceuticals, Inc., priority 2021, dated 2024)
Blank lines part the entries; values can stand above or below the compound they belong to.

What was measured:
C. difficile = test: Phase 2a trial: stool culture for C. difficile on CCFA; assay type: in vivo, Clostridioides difficile; settings: CDI patients
Protocol: Stool samples were cultured for C. difficile growth on a selective cycloserine-cefoxitin fructose agar (CCFA) at 37° C. under anaerobic conditions for 48 hours. (Gonzales-Luna). Isolates were determined to be C. difficile based on growth and morphology and confirmed by PCR for C. difficile toxin and tpi genes. C. difficile was strain typed using a PCR-based ribotyping method as previously described. (Gonzales-Luna A J, Carlson T J, Dotson K M, et al. PCR ribotypes of Clostridioides difficile across Texas from 2011 to 2018 including emergence of ribotype 255. Emerg Microbes Infect 2020; 9(1): 341-7.) Minimum inhibitory concentrations (MICs) were determined for ibezapolstat by broth microdilution in 0.1% sodium taurocholate Brain Heart Infusion (BHI) media. (Begum K, Basseres E, Miranda J, et al. In Vitro Activity of Omadacycline, a New Tetracycline Analog, and Comparators against Clostridioides difficile. Antimicrob Agents Chemother 2020; 64(8).)

[1] = Phase 2a trial: safety assessments (adverse events); assay type: in vivo, human
Protocol: Safety evaluations included AE assessment, physical examination, vital signs, clinical laboratory tests (chemistry, hematology, and urinalysis), and electrocardiography. Safety endpoints for all subjects were recorded including nature, frequency, and severity of AEs. AEs were assessed at each visit beginning from the time of enrollment and classified according to the Medical Dictionary for Regulatory Activities (MedDRA version 15.0). AE severity (mild, moderate, or severe) and causality (unrelated, possibly related, or probably related to the study medication) were assessed by the investigator at each site.

C. difficile infection [2] = test: Phase 2a open-label trial in CDI patients: clinical cure and sustained clinical cure; assay type: in vivo, human; settings: 10 CDI patients
Protocol: Phase 2a of this trial was an open-label cohort of 10 subjects from study centers in the United States. In this cohort, 10 patients with diarrhea caused by mild/moderate C. difficile diagnosed via toxin EIA+ were treated with ibezapolstat 450 mg orally, twice daily for 10 days. All patients were followed for recurrence for 28±2 days. Stool was collected during course of therapy and at follow up. Patient fecal samples were evaluated for C. difficile culture and microbiome changes.
The primary efficacy outcome measure was clinical cure at EOT defined as resolution of diarrhea in the 24-hour period preceding EOT and maintained for at least 48 hours post EOT. SCC was defined as clinical cure with no recurrence of CDI within 28 (±2) days after EOT.
An intent-to-treat analysis of patients receiving at least one dose of ibezapolstat was conducted. Descriptive statistics were calculated for efficacy, safety/tolerability, and PK data generated using SAS version 9.4 software (SAS Institute, Inc Cary, NC, USA). Microbiome summary plots and data visualization was prepared using R software version 4.1.1 (R Core Team 2021, Vienna, Austria). (R Core Team (2013). R: A language and environment for statistical computing. R Foundation for Statistical Computing, Vienna, Austria.) Alpha diversity for each sample was assessed with the VeganR package version 2.4-2 using the Shannon Diversity Index and Inverse Simpson Index. Differences in alpha diversity (Shannon Diversity and Inverse Simpson Indexes) and bile acids at baseline compared to during or after therapy were compared using linear regression models. Proportional changes of bacterial taxa over the 10-day dosing interval were calculated using linear regression models for taxa with at least a one percent proportional change during the study time period. A p value <0.05 was considered significant.

[3] = Phase 2a trial: plasma and fecal concentrations (PK); assay type: in vivo, human; settings: CDI patients
Protocol: Plasma levels were drawn at 2 and 4 hours after the first daily ibezapolstat administration on days 1, 5, and 10. Fecal samples were collected at baseline and daily during days 1-10 of ibezapolstat receipt. Plasma and fecal concentrations were assayed by AltaSciences (Laval, Quebec, Canada) and PK analyses were performed by Learn and Confirm Inc. (Montreal, Quebec, Canada).

C. difficile infection [4] = settings: literature (Gonzales-Luna); cited from earlier work
[5] = CDI patients receiving ibezapolstat
[6] = ibezapolstat 450 mg orally twice daily 10 days

stool samples with detectable concentration on day 38 [3]: Three of 4
plasma concentrations, upper limit ([3]; 450 mg twice daily): ≤ 1000 ng/mL
stool concentration, days 8-10 of therapy ([3]; 450 mg twice daily): > 1,000 μg/g stool
concentration at 2 h ([3]; human, plasma, oral, 450 mg twice daily, read-out: plasma levels 2-hour post-dose): 234 to 299 ng/mL
concentration at 4 h ([3]; human, plasma, oral, 450 mg twice daily, read-out: plasma levels 4-hour postdose): 373 to 578 ng/mL
concentration at 2 days after EOT ([3]; human, stool, oral, 450 mg, read-out: stool concentration two days after EOT): 535000 ± 748000 ng/g
concentration at 38 day ([3]; human, stool, oral, 450 mg, samples with detectable concentration): 136000 ± 161000 ng/g
concentration at 3 day of therapy ([3]; human, stool, oral, 450 mg twice daily): 416000 ± 494000 ng/g
SMILES: O=c1[nH]c(NCc2ccc(Cl)c(Cl)c2)nc2ncn(CCN3CCOCC3)c12 [Ibezapolstat, 2-((3,4-dichlorobenzyl)amino)-7-(2-morpholinoethyl)-1,7-dihydro-6H-purin-6-one]
C. difficile growth from stool samples after baseline (C. difficile; all sampling days other than baseline, 7-9 samples/day): did not grow C. difficile
Eradication of colonic C. difficile (C. difficile; ibezapolstat 450 mg twice daily): complete eradication of colonic C. difficile by day three
number of AEs reported ([1]; 10 CDI patients): Seven
serious AEs ([1]; 10 CDI patients): None
adverse event profile, in words ([1]; 10 CDI patients, ibezapolstat 450 mg twice daily 10 days): acceptable adverse event profile
Adverse event Headache: Action taken with study medication [1, 5]: No
Adverse event Headache: Frequency [1, 5]: Intermittent
Adverse event Headache: Intensity [1, 5]: Mild
Adverse event Headache: Outcome [1, 5]: Resolved
Adverse event Headache: Relationship to study drug [1, 5]: Unrelated
Adverse event Headache: Serious AE [1, 5]: No
Adverse event Headache: Treatment required [1, 5]: No
Adverse event Intertriginous Candidiasis: Action taken with study medication [1, 5]: No
Adverse event Intertriginous Candidiasis: Frequency [1, 5]: Continuous
Adverse event Intertriginous Candidiasis: Intensity [1, 5]: Moderate
Adverse event Intertriginous Candidiasis: Outcome [1, 5]: Resolved
Adverse event Intertriginous Candidiasis: Relationship to study drug [1, 5]: Unrelated
Adverse event Intertriginous Candidiasis: Serious AE [1, 5]: No
Adverse event Intertriginous Candidiasis: Treatment required [1, 5]: Yes
Adverse event Migraine headache: Action taken with study medication [1, 5]: No
Adverse event Migraine headache: Frequency [1, 5]: Continuous
Adverse event Migraine headache: Intensity [1, 5]: Severe
Adverse event Migraine headache: Outcome [1, 5]: Resolved
Adverse event Migraine headache: Relationship to study drug [1, 5]: Unrelated
Adverse event Migraine headache: Serious AE [1, 5]: No
Adverse event Migraine headache: Treatment required [1, 5]: Yes
Adverse event Nausea: Action taken with study medication [1, 5]: No
Adverse event Nausea: Frequency [1, 5]: Intermittent
Adverse event Nausea: Intensity [1, 5]: Moderate
Adverse event Nausea: Outcome [1, 5]: Resolved
Adverse event Nausea: Relationship to study drug [1, 5]: Probably
Adverse event Nausea: Serious AE [1, 5]: No
Adverse event Nausea: Treatment required [1, 5]: No
Adverse event Vomiting: Action taken with study medication [1, 5]: No
Adverse event Vomiting: Frequency [1, 5]: Once
Adverse event Vomiting: Intensity [1, 5]: Moderate
Adverse event Vomiting: Outcome [1, 5]: Resolved
Adverse event Vomiting: Relationship to study drug [1, 5]: Probably
Adverse event Vomiting: Serious AE [1, 5]: No
Adverse event Vomiting: Treatment required [1, 5]: Yes
patients with AEs ([1]; of the 10 patients): 4
no recurrences of infection (C. difficile infection [2]; followed 28±2 days): 100%
clinical cure at day 12 (C. difficile infection [2]; [6]): 100%
infection eliminated (C. difficile infection [2]; [6]): 100%
sustained clinical cure at day 38 (C. difficile infection [2]; [6]): 100%

SMILES: CN[C@H](CC(C)C)C(=O)N[C@H]1C(=O)N[C@@H](CC(N)=O)C(=O)N[C@H]2C(=O)N[C@H]3C(=O)N[C@H](C(=O)N[C@H](C(=O)O)c4cc(O)cc(O)c4-c4cc3ccc4O)[C@H](O)c3ccc(c(Cl)c3)Oc3cc2cc(c3O[C@@H]2O[C@H](CO)[C@@H](O)[C@H](O)[C@H]2O[C@H]2C[C@](C)(N)[C@H](O)[C@H](C)O2)Oc2ccc(cc2Cl)[C@H]1O [Vancomycin, vancomycin]
patients having a recurring CDI after treatment is discontinued (C. difficile infection [4]): 20-25%

SMILES: CCc1c(Cl)c(O)c(Cl)c(O)c1C(=O)O[C@H]1[C@H](O)[C@H](OC)[C@H](OC/C2=C\C=C\C[C@H](O)/C(C)=C/[C@H](CC)[C@@H](O[C@@H]3OC(C)(C)[C@@H](OC(=O)C(C)C)[C@H](O)[C@@H]3O)/C(C)=C/C(C)=C/C[C@@H]([C@@H](C)O)OC2=O)O[C@@H]1C [fidaxomicin]
CDI recurrence rates lower than other treatments (C. difficile infection [4]): approximately 50%
